Results taken from patent US8436000B2, “Substituted carbamate derivatives as modulators of corticotropin-releasing factor receptor activity” (Bristol-Myers Squibb Company, priority 2008, dated 2013).

Test system: Human Y-79 retinoblastoma cells
Assay: Functional Assay (Y-79 cells), CRF-stimulated cAMP production (HTRF)
Assay type: cell-based
Conditions: stimulation of cAMP production in Y-79 cells, n=6
Method: Functional Assay (Y-79 cells).
Human Y-79 retinoblastoma cells were suspended in assay buffer (Hank's Balanced Salt Solution containing 2 mM CaCl2, 5 mM MgCl2, 20 mM HEPES, 1 mM IBMX) and plated at 20,000 cells/well in a 96-well black plate. CRF antagonists (typically 0.01 to 10,000 nM) were then added to wells as needed and allowed to equilibrate with the cells for 30 minutes at 37° C. […] The reaction was terminated by the addition of a lysis solution containing homogeneous time resolved florescence (HTRF) cAMP XL665 conjugate followed by HTRF anti-cAMP cryptate conjugate (CIS bio International). Plates were subsequently incubated at room temperature for 1 hour prior to reading the time-resolved fluorescence signal. The amount of cAMP produced was estimated from a standard curve prepared using known concentrations of cAMP. The percentage inhibition of CRF-induced cAMP production was determined for each compound (triplicate determinations). The effect of CRF antagonists on basal cAMP production (i.e. in the absence of CRF) was also determined.
With Corticotropin releasing factor [CRF] the EC50 was 1.11 ± 0.14 nM.

Test system: not given
Assay: not given
Conditions: not given
For `COc1nc(C)c(Nc2nc(Cl)cn([C@H](COC(=O)Nc3cccc(C#N)c3)C3CC3)c2=O)cc1C` [Example 2, (S)-2-(5-Chloro-3-(6-methoxy-2,5-dimethylpyridin-3-ylamino)-2-oxopyrazin-1(2H)-yl)-2-cyclopropylethyl 3-cyanophenylcarbamate], the melting point was 206.5 to 207.2 °C.

Target: T1, CRF1 (Rattus norvegicus, UniProt P35353)
T1 construct: Frozen rat frontal cortex was thawed rapidly in assay buffer; tissue Analytical Biological Services, Inc. (Wilmington, Del.); host or cells: rat frontal cortex
T1 sequence (P35353 24-415): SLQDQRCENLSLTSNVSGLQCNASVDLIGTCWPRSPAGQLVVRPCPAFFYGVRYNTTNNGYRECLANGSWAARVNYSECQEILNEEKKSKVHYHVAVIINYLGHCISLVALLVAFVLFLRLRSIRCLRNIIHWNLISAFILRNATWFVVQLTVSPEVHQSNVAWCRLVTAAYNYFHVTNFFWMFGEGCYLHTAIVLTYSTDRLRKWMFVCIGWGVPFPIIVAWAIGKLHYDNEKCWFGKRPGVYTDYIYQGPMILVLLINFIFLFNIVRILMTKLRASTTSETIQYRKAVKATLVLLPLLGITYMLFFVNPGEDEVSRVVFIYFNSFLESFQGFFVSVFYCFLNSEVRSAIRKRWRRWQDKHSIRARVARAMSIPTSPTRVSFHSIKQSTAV
Assay: CRF1 Binding Assay (125I-ovine-CRF displacement, rat frontal cortex homogenate)
Conditions: 125I-o-CRF, class symbols
Method: Frozen rat frontal cortex was thawed rapidly in assay buffer containing 50 mM Hepes (pH 7.0 at 23° C.), 10 mM MgCl2, 2 mM EGTA, 1 μg/ml aprotinin, 1 μg/ml leupeptin, 1 Mg/ml pepstatin A, 0.005% Triton X-100, 10 U/ml bacitracin and 0.1% ovalbumin and homogenized. The suspension was centrifuged at 32000×g for 30 minutes. The resulting supernatant was discarded and the pellet resuspended by homogenization in assay buffer and centrifuged again. The supernatant was discarded and the pellet resuspended by homogenization in assay buffer and frozen at −70° C. On the day of the experiment aliquots of the homogenate were thawed quickly and 25 μg/well added to […] ^125I-ovine-CRF (^125I-o-CRF) and drugs in a total volume of 100 μl assay buffer. The assay mixture was incubated for 2 hr at 21° C. Bound and free radioligand were then separated by rapid filtration using glass fiber filters (Whatman GF/B, pretreated with 0.3% PEI (polyethylenimine)) on a Brandel Cell Harvester. Filters were then washed multiple times with ice cold wash buffer (PBS w/o Ca^2+ and Mg^2+, 0.01% Triton X-100; pH 7.0 at 23° C.). Non-specific binding was defined using 1 μM DMP696, a CRF1 selective antagonist [Li, Y-W. et al., CNS Drug Reviews 11: 21-52, (2005)]. Filters were then counted in a Wallac Wizard gamma counter. IC50 values were determined in a five point (five drug concentrations) or ten point (ten drug concentrations) competition assay using non-linear regression by Microsoft Excel-fit. Rat frontal cortex was obtained from Analytical Biological Services, Inc. (Wilmington, Del.). ^125I-ovine-CRF (2200 Ci/mmol) was obtained from PerkinElmer Life Sciences, Inc. (Boston, Mass.).
With `COc1nc(C)c(Nc2nc(Cl)cn([C@H](COC(=O)Nc3ccccc3)C3CC3)c2=O)cc1C` [Example 1, (S)-2-(5-Chloro-3-(6-methoxy-2,5-dimethylpyridin-3-ylamino)-2-oxopyrazin-1(2H)-yl)-2-cyclopropylethyl phenylcarbamate] the IC50 was 0.1 to 100 nM.
Work on `COc1nc(C)c(Nc2nc(Cl)cn([C@H](COC(=O)Nc3cccc(C#N)c3)C3CC3)c2=O)cc1C` [Example 2, (S)-2-(5-Chloro-3-(6-methoxy-2,5-dimethylpyridin-3-ylamino)-2-oxopyrazin-1(2H)-yl)-2-cyclopropylethyl 3-cyanophenylcarbamate] yielded an IC50 of 0.1 to 100 nM.
Work on `COc1nc(C)c(Nc2nc(Cl)cn([C@H](COC(=O)Nc3cccnc3)C3CC3)c2=O)cc1C` [Example 3, (S)-2-(5-Chloro-3-(6-methoxy-2,5-dimethylpyridin-3-ylamino)-2-oxopyrazin-1(2H)-yl)-2-cyclopropylethyl pyridin-3-ylcarbamate] yielded an IC50 of 0.1 to 100 nM.
For `COc1nc(C)c(Nc2nc(Cl)cn([C@H](COC(=O)Nc3ccccc3Cl)C3CC3)c2=O)cc1C` [Example 4, (S)-2-(5-Chloro-3-(6-methoxy-2,5-dimethylpyridin-3-ylamino)-2-oxopyrazin-1(2H)-yl)-2-cyclopropylethyl 2-chlorophenylcarbamate], the IC50 was 0.1 to 100 nM.
With `COc1nc(C)c(Nc2nc(Cl)cn([C@H](COC(=O)Nc3ccc(Cl)cc3)C3CC3)c2=O)cc1C` [Example 5, (S)-2-(5-Chloro-3-(6-methoxy-2,5-dimethylpyridin-3-ylamino)-2-oxopyrazin-1(2H)-yl)-2-cyclopropylethyl 4-chlorophenylcarbamate] the IC50 was 0.1 to 100 nM.
`COc1nc(C)c(Nc2nc(Cl)cn([C@H](COC(=O)Nc3cc(Cl)cc(Cl)c3)C3CC3)c2=O)cc1C` [Example 6, (S)-2-(5-Chloro-3-(6-methoxy-2,5-dimethylpyridin-3-ylamino)-2-oxopyrazin-1(2H)-yl)-2-cyclopropylethyl 3,5-dichlorophenylcarbamate] gave an IC50 of 0.1 to 100 nM.
`COc1nc(C)c(Nc2nc(Cl)cn([C@H](COC(=O)Nc3ccc(Cl)cc3Cl)C3CC3)c2=O)cc1C` [Example 7, (S)-2-(5-Chloro-3-(6-methoxy-2,5-dimethylpyridin-3-ylamino)-2-oxopyrazin-1(2H)-yl)-2-cyclopropylethyl 2,4-dichlorophenylcarbamate] showed an IC50 of 0.1 to 100 nM.
`CCCNC(=O)OC[C@H](C1CC1)n1cc(Cl)nc(Nc2cc(C)c(OC)nc2C)c1=O` [Example 9, (S)-2-(5-Chloro-3-(6-methoxy-2,5-dimethylpyridin-3-ylamino)-2-oxopyrazin-1(2H)-yl)-2-cyclopropylethyl propylcarbamate] showed an IC50 of 0.1 to 100 nM.
`CCNC(=O)OC[C@H](C1CC1)n1cc(Cl)nc(Nc2cc(C)c(OC)nc2C)c1=O` [Example 10, (S)-2-(5-Chloro-3-(6-methoxy-2,5-dimethylpyridin-3-ylamino)-2-oxopyrazin-1(2H)-yl)-2-cyclopropylethyl ethylcarbamate] gave an IC50 of 0.1 to 100 nM.
With `COc1nc(C)c(NC(=O)OC[C@H](C2CC2)n2cc(Cl)nc(Nc3cc(C)c(OC)nc3C)c2=O)cc1C` [Example 12, (S)-2-(5-Chloro-3-(6-methoxy-2,5-dimethylpyridin-3-ylamino)-2-oxopyrazin-1(2H)-yl)-2-cyclopropyl ethyl 6-methoxy-2,5-dimethylpyridin-3-ylcarbamate] the IC50 was 0.1 to 100 nM.
Work on `COc1ccc(NC(=O)OC[C@H](C2CC2)n2cc(Cl)nc(Nc3cc(C)c(OC)nc3C)c2=O)c(C)n1` [Example 13, (S)-2-(5-Chloro-3-(6-methoxy-2,5-dimethylpyridin-3-ylamino)-2-oxopyrazin-1(2H)-yl)-2-cyclopropylethyl 6-methoxy-2-dimethylpyridin-3-ylcarbamate] yielded an IC50 of 0.1 to 100 nM.
`Cc1cc(Nc2nc(Cl)cn([C@H](COC(=O)Nc3cccnc3)C3CC3)c2=O)c(C)nc1OC(F)F` [Example 15, (S)-2-(5-Chloro-3-(6-(difluoromethoxy)-2,5-dimethylpyridin-3-ylamino)-2-oxopyrazin-1(2H)-yl)-2-cyclopropylethyl pyridin-3-ylcarbamate] gave an IC50 of 0.1 to 100 nM.

Same assay, conditions: 125I-o-CRF, numeric values
`CCCCNC(=O)OC[C@H](C1CC1)n1cc(Cl)nc(Nc2cc(C)c(OC)nc2C)c1=O` [Example 8, (S)-2-(5-Chloro-3-(6-methoxy-2,5-dimethylpyridin-3-ylamino)-2-oxopyrazin-1(2H)-yl)-2-cyclopropylethyl butylcarbamate] gave an IC50 of 4.74 nM.
`CCOc1nc(C)c(NC(=O)OC[C@H](C2CC2)n2cc(Cl)nc(Nc3cc(C)c(OC)nc3C)c2=O)cc1C` [Example 11, (S)-2-(5-Chloro-3-(6-methoxy-2,5-dimethylpyridin-3-ylamino)-2-oxopyrazin-1(2H)-yl)-2-cyclopropylethyl 6-ethoxy-2,5-dimethylpyridin-3-ylcarbamate] gave an IC50 of 15.9 nM.
`Cc1cc(Nc2nc(Cl)cn([C@H](COC(=O)Nc3ccccc3)C3CC3)c2=O)c(C)nc1OC(F)F` [Example 14, (S)-2-(5-Chloro-3-(6-(difluoromethoxy)-2,5-dimethylpyridin-3-ylamino)-2-oxopyrazin-1(2H)-yl)-2-cyclopropylethyl phenylcarbamate] gave an IC50 of 0.74 nM.
